In article PMC6095874, “Discovery of cationic nonribosomal peptides as Gram-negative antibiotics through global genome mining” (Nature Communications, 2018):
Converted amounts (≈) assume the structure as drawn. Like-named read-outs stand apart in the source and are kept apart here. Where a SMILES comes first, the peptide text is derived from it. Bridges are numbered along the chain shown (N, C = ends). [ ]: non-standard residue; d: D form. The star is where a group is joined. Octanoyl(7-Me) = CC(C)CCCCCC(=O)*; dOrn = NCCC[C@@H](N)C(=O)O; X1 = CC[C@H](C)CCCCC(=O)*; Orn = NCCC[C@H](N)C(=O)O; Dab = NCC[C@H](N)C(=O)O

Legend:
[1] = test system: Escherichia coli ATCC 25922; experiment: microbe, parasite or virus in culture; format: cell-based; settings: for MIC, Ec: Supplementary Table 1, Ec = Escherichia coli ATCC 25922
Description: (§1) MIC was determined by broth microdilution according to CLSI guidelines. The test medium for most species was Mueller–Hinton broth (MHB). Bacteria were grown overnight to early stationary phase and adjusted in MHB to 5.0 × 10^5 c.f.u. mL^−1 in the wells of 96-well microtiter plates (Falcon® 96-Well Flat-Bottom Microplate, Tissue Culture-Treated), mixed with varying concentrations of test compounds and incubated at 37 °C for 24 h. Cell growth was evaluated by measuring the optical density at 595 nm (Thermo Scientific Multiskan FC multiplate photometer) (Waltham, MA, USA), and the MIC was defined as the lowest compound concentration at which no bacterial growth was observed. MHBs containing 10% fetal bovine serum (Gibco), 21 mM MgCl, or 1.0 mg mL^−1 LPS (lipopolysaccharides from E. coli O55:B5, Sigma-Aldrich) was used to test their inhibitory effects.

[2] = test system: Colistin-resistant E. coli (E. coli ATCC 25922 carrying mcr-1); experiment: MIC by broth microdilution; format: cell-based, Escherichia coli; settings: MHB, 37 °C, 24 h
Description: as §1

[3] = test system: Pseudomonas aeruginosa PAO1; format: cell-based; settings: for MIC, Pa: Supplementary Table 1, Pa = Pseudomonas aeruginosa PAO1
Description: as §1

Gram-negative bacteria = format: cell-based
Description: as §1

[4] = test system: Staphylococcus aureus (MRSA); format: cell-based
Description: as §1

Acinetobacter baumannii = experiment: MIC by broth microdilution; format: cell-based; settings: Supplementary Table 1
Description: as §1

Bacillus subtilis 168 = experiment: MIC by broth microdilution; format: cell-based; settings: Supplementary Table 1; Bs = B. subtilis 168
Description: as §1

[5] = test system: Enterobacter cloacae NRRL-B-413; experiment: MIC by broth microdilution; format: cell-based; settings: Supplementary Table 1; En = Enterobacter cloacae NRRL-B-413
Description: as §1

[6] = test system: Klebsiella pneumoniae NRRL-B-408; experiment: MIC by broth microdilution; format: cell-based; settings: Supplementary Table 1; Kp = Klebsiella pneumoniae NRRL-B-408
Description: as §1

[7] = test system: K. pneumoniae NRRL-B-3521; format: cell-based, Klebsiella pneumoniae
Description: as §1

E. cloacae NRRL-B-425 = format: cell-based, Enterobacter cloacae
Description: as §1

Candida albicans = format: cell-based
Saccharomyces cerevisiae = format: cell-based
E. coli TOP10 cells [8] = experiment: Time-kill assay; format: cell-based, Escherichia coli; settings: for cell viability in time-kill assay: ten times the MIC, early exponential cells, room temperature, c.f.u. counts, triplicate
Description: (§2) An overnight culture of E. coli TOP10 cells was diluted 1:10,000 in MHB and incubated at 37 °C with agitation at 180 rpm for 2 h (early exponential). The bacteria were then challenged with brevicidine (20 μg mL^−1), laterocidine (20 μg mL^−1), or polymyxin B (10 μg mL^−1) at ten times the MIC at room temperature without shaking. An untreated sample of cells was used as a negative control. At intervals, 10 μL aliquots were removed, centrifuged at 10,000 × g for 1 min and resuspended in 1.0 mL of sterile PBS. Tenfold serially diluted suspensions were plated on MHB agar plates and incubated at 37 °C overnight. Colonies were counted and the number of c.f.u. per mL was calculated. For analysis of lysis, 300 μL of culture (OD600 = 1.0) were treated with antibiotics at ten times the MIC for 24 h. Experiments were performed in triplicate.

E. coli TOP10 cells [9] = experiment: Bacterial growth kinetics; format: cell-based, Escherichia coli; settings: OD600 of cells exposed to antibiotics (Fig. 4: two times the MIC)
Description: A single fresh colony of E. coli TOP10 cells was inoculated into MHB (5 mL) and grown with shaking at 225 rpm overnight. The bacteria were diluted to 1 × 10^5 c.f.u. mL^−1 in fresh MHB, grown […] to early log-phase (OD600 = 0.15) and treated with the antibiotics of interest in the wells of a 96-well plate. Final antibiotic concentrations varied from one to eight times the MIC. The plate was then incubated at 30 °C overnight, with OD600 measurements taken every 30 s.

E. coli = experiment: Lysis assay; format: cell-based, Escherichia coli; settings: ten times the MIC, culture OD600 = 1.0, 24 h
Description: as §2

E. coli ATCC 25922 [10] = experiment: Resistance acquisition during serial passaging; format: cell-based, Escherichia coli; settings: subinhibitory concentrations, 30-day period, MHB, 37 °C, quadruplicate
Description: E. coli ATCC 25922 was inoculated into MHB overnight at 37 °C with continuous shaking. Cells were diluted 10,000 times in MHB to about 1 × 10^6 c.f.u. mL^−1. Ten µL aliquots were drawn to a 96-well plate containing 90 µL of serially diluted brevicidine, laterocidine, and ciprofloxacin, at final concentrations of 0.5×, 1×, 1.5×, 2×, and 4× MIC. […] Plates with bacteria were incubated at 37 °C without shaking. […] This process was repeated for 30 days, and the final MIC was confirmed by the same antibacterial assay as the one described above. The experiment was performed in quadruplicate, and on each day, the sample that developed the highest resistance was measured to plot the curve. For single-step resistance, E. coli ATCC 25922 cells at 10^8 c.f.u. were plated onto Mueller–Hinton agar containing 4× MIC of brevicidine.

E. coli ATCC 25922 [11] = experiment: Neutropenic mouse thigh infection model; format: in vivo; settings: laterocidine 15 mg kg^−1 twice s.c., five mice, after 26 h, Mann–Whitney P < 0.01
Description: Given the low risk of resistance and the attractive mode of action of 1–2, an animal efficacy study was then performed in a mouse thigh model. Mice were intramuscularly infected with 1.50 × 10^6 c.f.u. of E. coli ATCC 25922. Two hours post infection, brevicidine (30 mg kg^−1) or laterocidine (15 mg kg^−1) was subcutaneously injected at two doses. […] In particular, compound 1 was highly efficacious in mice infected with E. coli and caused a 5 log10 reduction in c.f.u. in the thigh compared to the vehicle control after 24 h (Fig. 4f).
In vivo activities of brevicidine and laterocidine were tested using the mouse thigh infection model. Animal studies were performed by Pharmacology Discovery Services Taiwan Ltd. in general accordance with standard guidelines on animal welfare[38] in an AAALAC-accredited facility. The protocol was reviewed and approved by the Institutional Animal Care and Use Committee. Groups of five female-specific pathogen-free ICR (CD-1) mice weighing 22 ± 2 g (~5 weeks of age) were used. Animals were immunosuppressed with two intraperitoneal injections of cyclophosphamide, the first at 150 mg kg^−1 4 days before infection (day −4) and the second at 100 mg kg^−1 1 day before infection (day −1). On day 0, animals were inoculated intramuscularly (0.1 mL per thigh) in the right thigh with an E. coli ATCC 25922 suspension. Vehicle (10% DMSO, 1% Tween 80, 0.9% NaCl) and antibiotics were then subcutaneously injected 2 and 8 h later. Due to the limited availability of compounds 1–2, only one concentration of 1 (30 mg kg^−1) or 2 (15 mg kg^−1) was used in the present study. Precisely 26 h after inoculation, animals were euthanized by CO2 asphyxiation before their right thigh muscles were harvested. The removed muscles were homogenized in 5 mL of PBS, pH 7.4, with a Polytron homogenizer. Homogenates in the amount of 0.1 mL were used for serial tenfold dilutions and plated onto a nutrient agar medium for colony count (in c.f.u. g^−1) determination. No randomization or blinding was necessary for the animal infection models, and no samples were excluded.

rabbit erythrocytes = settings: concentrations up to 128 μg mL^−1, 2% (v/v) rabbit erythrocytes in PBS, 1 h, 37 °C, absorbance 570 nm, vs 10% Triton X-100
Description: Hemolytic activity was determined with red blood cells freshly isolated from healthy rabbits. […] The cells were incubated for 1 h at 37 °C and centrifuged for 5 min at 10,000 × g. The supernatant was transferred to a 96-well plate and the absorbance was measured at a wavelength of 570 nm with a Thermo Scientific Multiskan FC multiplate photometer. The absorbance relative to the positive control, which was treated with 10% Triton X-100, was defined as the percentage of hemolysis.

Human HeLa cells = settings: concentrations up to 128 μg mL^−1, 48 h, 37 °C, MTT, absorbance 570 nm
Description: Human HeLa cells were used in the assay. Ninety μL of 1 × 10^5 mL^−1 cells were placed into the wells of 96-microwell plates. After 12 h, 10 μL of a medium containing test compounds at various concentrations were added to the cells which were then incubated at 37 °C for 48 h. Afterward, the supernatant was removed and 20 μL of MTT (3-(4,5-Dimethylthiazol-2-yl)-2,5-Diphenyltetrazolium Bromide) (2.5 mg mL^−1) in PBS were added to each well. After incubation at 37 °C for 3 h, 80 μL of dimethyl sulfoxide (DMSO) were added to each well and incubated for an additional 15 min. The absorbance was then measured at 570 nm with a Thermo Scientific Multiskan FC multiplate photometer.

[12] = Peptide binding to LPS by isothermal titration calorimetry; set-up: species or system Escherichia coli; settings: 37 °C, 20 mM HEPES pH 7.0
Description: Microcalorimetric experiments of peptide binding to LPS were performed on an MCS isothermal titration calorimeter (Microcal, Northampton, MA) at 37 °C. LPS was prepared as a 50 µM aqueous suspension in 20 mM HEPES buffer (pH 7.0) by suspension, sonication, and temperature cycling between 5 and 70 °C. This suspension was stored at 4 °C overnight prior to use. Aliquots of 100 µM peptide solutions (brevicidine and polymyxin B) were prepared in the same buffer and all solutions were degassed prior to use by stirring under vacuum for 5 min at 37 °C. After thermal equilibration, 5 µL aliquots of the peptide solution were added every 3 min into the lipid-containing cell at 37 °C with constant stirring. The change in heat during the titration steps was registered in real time and raw data were processed using the Origin® 7 software provided with the instrument. In control experiments, the corresponding peptide solution (or LPS solution) was injected into the buffer without LPS (or without peptide).

[13] = broth microdilution, MHB, 37 °C, 24 h

## CC[C@H](C)CCCCC(=O)N[C@@H](CCN)C(=O)N[C@H](C(=O)N[C@@H](CCN)C(=O)N[C@H]1CCNC(=O)[C@H]([C@@H](C)O)NC(=O)[C@H](CCN)NC(=O)[C@H](CCN)NC(=O)[C@H](CC(C)C)NC(=O)[C@@H](CC(C)C)NC(=O)[C@H](CCN)NC1=O)[C@@H](C)O [Colistin, reference compound] (X1-[Dab]T[Dab][Dab][Dab][dL]L[Dab][Dab]T; lactam 4-C (inferred); N-terminus assumed)
[1]; broth microdilution (CLSI), MHB, 5.0 × 10^5 c.f.u. mL^−1, 37 °C, 24 h, OD 595 nm
  MIC: 2 µg/mL (≈ 1.71 µM)
[2]
  MIC: 16 µg/mL (≈ 13.7 µM)
[3]; [13]
  MIC: 1 µg/mL (≈ 0.855 µM)

## CC[C@H](C)[C@@H]1NC(=O)[C@@H](NC(=O)[C@H](Cc2c[nH]c3ccccc23)NC(=O)[C@@H](CCCN)NC(=O)CNC(=O)[C@H](CCCN)NC(=O)[C@@H](CCCN)NC(=O)[C@@H](Cc2c[nH]c3ccccc23)NC(=O)[C@@H](Cc2ccc(O)cc2)NC(=O)[C@@H](CO)NC(=O)CCCCCC(C)C)[C@@H](C)OC(=O)CNC(=O)CNC(=O)[C@H](CC(N)=O)NC1=O [Compound 2, laterocidine] ({Octanoyl(7-Me)}-[dS][dY][dW][dOrn][Orn]G[dOrn]WTINGG; ester 9-C)
[1]
  MIC, Ec: 2 µg/mL (≈ 1.25 µM)
[2]
  MIC: 2 µg/mL (≈ 1.25 µM)
Gram-negative bacteria; 24 h
  MIC values against Gram-negative bacteria: 0.66 to 10.5 µM
Gram-negative bacteria; range over Gram-negative strains incl. P. aeruginosa and colistin-resistant E. coli
  MIC values against Gram-negative bacteria: 1 to 16 µg/mL
[3]
  MIC, Pa: 2 µg/mL (≈ 1.25 µM)
[4]; 24 h
  MIC: >64 µg/mL
Acinetobacter baumannii
  MIC, Ab: 4 µg/mL (≈ 2.49 µM)
Bacillus subtilis 168
  MIC, Bs: 32 µg/mL (≈ 19.9 µM)
[5]
  MIC, En: 2 µg/mL (≈ 1.25 µM)
[6]
  MIC, Kp: 4 µg/mL (≈ 2.49 µM)
[7]; NRRL-B-3521, 24 h
  MIC: 4 µg/mL (≈ 2.49 µM)
E. cloacae NRRL-B-425; NRRL-B-425, 24 h
  MIC: 2 µg/mL (≈ 1.25 µM)
Candida albicans; 24 h
  MIC: >64 µg/mL
Saccharomyces cerevisiae; 24 h
  MIC: >64 µg/mL
E. coli TOP10 cells [8]; as revealed by growth kinetics, time-kill assay and lysis assay
  bactericidal action against E. coli: bactericidal
E. coli TOP10 cells [8]
  cell viability in time-kill assay: significant reduction after 30 min
E. coli TOP10 cells [9]
  growth kinetics of E. coli cells exposed to compound: grew at a reduced rate for 30 min
E. coli
  lysis of E. coli cells: completely lysed
E. coli ATCC 25922 [10]
  resistance development during serial passaging: did not develop resistance
E. coli ATCC 25922 [11]
  viable bacteria in thigh: reduced number of viable bacteria
Rabbit erythrocytes
  lysis of erythrocytes (hemolysis): neither caused the lysis of erythrocytes
Human HeLa cells
  toxicity against the human cell line HeLa: nor showed significant toxicity

## C[C@H]1COc2c(N3CCN(C)CC3)c(F)cc3c(=O)c(C(=O)O)cn1c23 [Levofloxacin]
[1]; Escherichia coli, ATCC25922, positive control of the mouse thigh model infected with E. coli ATCC 25922, strain for MIC not stated explicitly, read-out: MIC
  MIC: 0.032 µg/mL (≈ 0.0886 µM)

## CC[C@H](C)CCCCC(=O)N[C@@H](CCN)C(=O)N[C@H](C(=O)N[C@@H](CCN)C(=O)N[C@H]1CCNC(=O)[C@H]([C@@H](C)O)NC(=O)[C@H](CCN)NC(=O)[C@H](CCN)NC(=O)[C@H](CC(C)C)NC(=O)[C@@H](Cc2ccccc2)NC(=O)[C@H](CCN)NC1=O)[C@@H](C)O [Polymyxin B, reference compound] (X1-[Dab]T[Dab][Dab][Dab][dF]L[Dab][Dab]T; lactam 4-C (inferred); N-terminus assumed)
[1]
  MIC, Ec: 1 µg/mL (≈ 0.831 µM)
[2]
  MIC: 16 µg/mL (≈ 13.3 µM)
[3]
  MIC, Pa: 1 µg/mL (≈ 0.831 µM)
[4]; Supplementary Table 1, MRSA = Methicillin-resistant Staphylococcus aureus ATCC 43300
  MIC, MRSA: 32 µg/mL (≈ 26.6 µM)
Acinetobacter baumannii
  MIC, Ab: 4 µg/mL (≈ 3.32 µM)
Bacillus subtilis 168
  MIC, Bs: 4 µg/mL (≈ 3.32 µM)
[5]
  MIC, En: 8 µg/mL (≈ 6.65 µM)
[6]
  MIC, Kp: 16 µg/mL (≈ 13.3 µM)
[7]; [13]
  MIC: 2 µg/mL (≈ 1.66 µM)
E. cloacae NRRL-B-425; [13]
  MIC: 64 µg/mL (≈ 53.2 µM)
Candida albicans; broth microdilution
  MIC: >64 µg/mL
Saccharomyces cerevisiae; broth microdilution
  MIC: >64 µg/mL
E. coli TOP10 cells [8]; ten times the MIC (polymyxin B 10 μg mL^−1)
  time to kill all cells in time-kill assay: ≤ 30 min
E. coli TOP10 cells [8]
  cell viability in time-kill assay: significantly reducing the viable cell population after 5 min
[12]
  binding to LPS (ITC): strong binding to LPS

## O=C(O)c1cn(C2CC2)c2cc(N3CCNCC3)c(F)cc2c1=O [ciprofloxacin, reference compound]
E. coli ATCC 25922 [10]
  resistance development during serial passaging: developed resistance
